According to patent US9670203B2 (BeiGene, LTD., priority 2013, dated 2017):
Read-outs that look alike come from different tables or passages of the source.

Tests used:
C-Raf (Y340D/Y341D) = C-Raf (Y340D/Y341D) (Homo sapiens (Human), UniProt P04049, Y340D/Y341D); assay: Raf IC50 assay, time-resolved fluorescence energy transfer, C-Raf (Y340D/Y341D); format: biochemical; details: 0.1 mM ATP
Experimental: The assay was carried out in reactions (10 μL) containing 0.0625 nM B-Raf or 0.5 nM C-Raf, 25 mM Tris pH7.4, 10 mM MgCl2, 0.5 mM EGTA, 0.5 mM Na3VO4, 5 mM beta-glycerophosphate, 0.01% Triton X-100, 2.5 mM DTT, 0.1% BSA, 0.1 mM ATP, 13.7 nM GST-tagged MEK1 (Full-length protein with K97R mutation, recombinant protein purified from bacterial expression system) and 0-5 μM compounds disclosed herein (final concentration of 1% DMSO). The enzyme was incubated with the compounds at room temperature for 60 minutes and the reactions were initiated by the addition of ATP and GST-MEK1. After reaction at room temperature for 60 minutes, an equal volume of stop/detection solution was added according to the manufacture's instruction (CisBio Bioassays). The stop/detection solution contained Eu^3+ cryptate-conjugated anti-phospho MEK1/2 (Ser217/221) rabbit polyclonal antibody and d2-conjugated anti-GST mouse monoclonal antibody in buffer containing 25 mM Tris pH7.4, 400 mM KF, 50 mM EDTA, 0.01% BSA and 0.01% Triton X-100. Plates were sealed and incubated at room temperature for 2 hours, and the TR-FRET signals (ratio of fluorescence emission at 665 nm over emission at 620 nm with excitation at 337 nm wavelength) were recorded on a PHERAstar FS plate reader (BMG Labtech). Phosphorylation of MEK1 led to the binding of anti-phospho-MEK1/2 antibody to GST-MEK1 protein that place fluorescent donor (Eu^3+ crypate) in close proximity to the accepter d2 on the anti-GST antibody, thus resulting in a high degree of fluorescence resonance energy transfer from the donor fluorophore (at 620 nm) to the acceptor fluorophore (at 665 nm). […] The IC50 for each compound was derived from fitting the dose-response % inhibition data to the four-parameter logistic model by Graphpad Prism software.

p61-A375 = assay: Anti-proliferative activity EC50 assay (CellTiter-Glo) in p61-A375; format: cell-based; details: 72 h; 3-day exposure; read-out: Cell Proliferation EC50 (nM) p61-A375
Experimental: (§1) To express p61 in mammalian cells, cDNA encoding the p61 (Poulikakos et al., Nature. 2011 Nov. 23; 480(7377):387-90) was synthesized by Genscript and cloned into pLVX-IRES-Puro vector (Clontech). The cDNA was a modified form of p61 in which sequencing encoding the flag-epitope had been inserted to the C-terminus, resulting in the expression of flag-tagged forms of protein. A375 cells were stably transfected with the Flag-p61 expressing plasmid and selected with DMEM containing […] puromycin (Invitrogen). Cells were cloned by limiting dilution in a 96-wells plate and the clones screened by western blot analysis using a monoclonal antibody directed against the flag-epitope.
(§2) The growth-inhibitory activity of compounds in A375 and p61-A375, was determined using CellTiter-Glo luminescent cell viability assay (Promega). The 2,000 cells were seeded per well of a 96-well plate to ensure logarithmic growth could occur over the 3 days treatment period. Cells were left to attach for 16 hours, cells were treated in duplicate with a 10-point dilution series. Following a 3-day exposure to compounds disclosed herein, a volume of CellTiter-Glo reagent equal to the volume of cell culture medium present in each well was added. Mixture was mixed on an orbital shaker for 2 minutes to allow cell lysis, followed by 10 minutes incubation at room temperature to allow stabilization of luminescent signal, which corresponded to quantitation of ATP and thus the quantitation of metabolically active cells. Luminescent signal was measured using Pherastar FS reader (BMG Labtech).
(§3) EC50 values for growth inhibition were calculated by fitting dose-dependent data to the four-parameter logistic model using GraphPad Prism software.

p61-A375 (pERK) = assay: ERK phosphorylation inhibition IC50 assay in p61-A375; format: cell-based; details: 1 hour compound treatment
Experimental: as §1
(§4) Growth medium was then replaced with 100 μL of serum free DMEM, cells were then treated with a 10-point titration of compounds disclosed herein. After 1 hour compound treatment, 50 μL of lysis buffer (Cisbio) were added to each well and incubated at room temperature with shaking for 30 minutes. A total of 16 μL of cell lysate from each well of a 96-well plate was transferred to a 384-well small volume white plate. Lysate from each well was incubated with 2 μL of Eu^3+-cryptate (donor) labeled anti-ERK antibody (Cisbio) and 2 μL of D2 (acceptor) labeled anti-phospho-ERK antibody (Cisbio) for 2 hours at room temperature. When donor and acceptor are in close proximity, excitation of the donor with laser triggers a Fluorescence Resonance Energy Transfer (FRET) towards the acceptor, which in turn fluoresces at 655 nm wavelength. Fluorescence values were measured using a BMG reader.
(§5) IC50 values for ERK inhibition were calculated by fitting dose-dependent data to the four-parameter logistic model using GraphPad Prism software.

A375 = assay: Anti-proliferative activity EC50 assay (CellTiter-Glo) in A375; format: cell-based; details: Homo sapiens, A-375, 72 h; 3-day exposure; read-out: Cell Proliferation EC50 (nM) A375
Experimental: as §2, §3

Calu-6 (pERK) = assay: ERK phosphorylation inhibition IC50 assay in Calu-6; format: cell-based; details: Homo sapiens, 1 hour compound treatment
Experimental: as §4, §5

wild type B-Raf = wild type B-Raf (Homo sapiens (Human), UniProt P15056); assay: WT B-Raf IC50 assay, time-resolved fluorescence energy transfer; format: biochemical
Experimental: The IC50 for each compound was calculated by non linear regression by Graphpad Prism software.

B-Raf (V600E) = B-Raf (V600E) (Homo sapiens (Human), UniProt P15056, V600E); assay: Raf IC50 assay, time-resolved fluorescence energy transfer, B-Raf (V600E); format: biochemical; details: 0.1 mM ATP; read-out: IC50 (nM) B_Raf^V600E
Experimental: The enzyme was incubated with the compounds at room temperature for 60 minutes and the reactions were initiated by the addition of ATP and GST-MEK1. After reaction at room temperature for 60 minutes, an equal volume of stop/detection solution was added according to the manufacture's instruction (CisBio Bioassays). […] The IC50 for each compound was derived from fitting the dose-response % inhibition data to the four-parameter logistic model by Graphpad Prism software.

HeLa (pERK) = assay: ERK phosphorylation inhibition IC50 assay in HeLa; format: cell-based; details: Homo sapiens, 1 hour compound treatment
Experimental: as §4, §5

[1] = 2.5 mM ATP, read-out: IC50 (nM) B-Raf^WT 2.5 mM ATP
[2] = Km ATP (2.9 μM ATP), read-out: IC50 (nM) B-Raf^WT Km ATP

Sequence of wild type B-Raf (P15056 whole entry): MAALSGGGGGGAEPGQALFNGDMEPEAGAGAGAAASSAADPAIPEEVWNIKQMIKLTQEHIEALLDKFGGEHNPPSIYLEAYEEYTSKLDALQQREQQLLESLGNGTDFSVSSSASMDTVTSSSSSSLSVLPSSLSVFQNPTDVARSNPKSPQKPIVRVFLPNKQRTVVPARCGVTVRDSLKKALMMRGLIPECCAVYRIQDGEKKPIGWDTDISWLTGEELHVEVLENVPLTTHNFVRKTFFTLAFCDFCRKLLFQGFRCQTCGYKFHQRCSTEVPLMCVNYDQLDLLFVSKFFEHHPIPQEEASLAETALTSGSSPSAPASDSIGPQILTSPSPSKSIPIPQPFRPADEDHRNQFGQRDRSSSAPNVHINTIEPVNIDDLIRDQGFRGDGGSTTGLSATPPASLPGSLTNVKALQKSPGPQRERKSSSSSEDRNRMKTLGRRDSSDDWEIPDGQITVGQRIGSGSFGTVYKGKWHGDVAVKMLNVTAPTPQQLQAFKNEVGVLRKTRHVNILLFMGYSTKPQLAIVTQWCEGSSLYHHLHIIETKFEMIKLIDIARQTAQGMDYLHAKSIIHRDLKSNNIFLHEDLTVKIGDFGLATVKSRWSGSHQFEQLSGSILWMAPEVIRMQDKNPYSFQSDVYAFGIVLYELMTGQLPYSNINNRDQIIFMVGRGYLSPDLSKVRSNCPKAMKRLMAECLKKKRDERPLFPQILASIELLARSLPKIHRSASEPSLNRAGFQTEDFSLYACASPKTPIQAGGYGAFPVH
Sequence of C-Raf (Y340D/Y341D) (P04049 whole entry Y340D/Y341D): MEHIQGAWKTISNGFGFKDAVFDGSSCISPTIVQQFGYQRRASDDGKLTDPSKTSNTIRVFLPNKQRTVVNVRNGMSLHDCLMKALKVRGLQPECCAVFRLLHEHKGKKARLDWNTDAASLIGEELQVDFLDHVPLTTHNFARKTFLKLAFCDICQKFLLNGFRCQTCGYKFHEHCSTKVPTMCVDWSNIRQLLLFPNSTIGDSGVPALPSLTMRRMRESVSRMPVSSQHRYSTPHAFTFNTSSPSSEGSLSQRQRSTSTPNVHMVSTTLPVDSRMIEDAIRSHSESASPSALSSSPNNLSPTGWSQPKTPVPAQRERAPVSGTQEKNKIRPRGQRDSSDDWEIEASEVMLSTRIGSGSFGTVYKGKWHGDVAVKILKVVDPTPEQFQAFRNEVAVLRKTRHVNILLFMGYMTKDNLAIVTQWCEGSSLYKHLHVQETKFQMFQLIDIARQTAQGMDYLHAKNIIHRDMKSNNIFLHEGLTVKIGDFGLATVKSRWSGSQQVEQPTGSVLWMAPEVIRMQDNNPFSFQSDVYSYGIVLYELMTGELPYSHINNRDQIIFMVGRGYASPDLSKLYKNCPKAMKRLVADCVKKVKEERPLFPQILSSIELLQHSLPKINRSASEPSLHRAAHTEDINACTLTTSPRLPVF
Sequence of B-Raf (V600E) (P15056 whole entry V600E): as the sequence (P15056 whole entry) above, with V600E counted along it

Row | SMILES | IC50 (C-Raf (Y340D/Y341D)) | EC50 (p61-A375) | IC50 (p61-A375 (pERK)) | EC50 (A375) | IC50 (Calu-6 (pERK)) | IC50 (wild type B-Raf; [1]) | IC50 (wild type B-Raf; [2]) | IC50 (B-Raf (V600E)) | IC50 (HeLa (pERK))
1 | O=C1CCc2c(Oc3ccc4c(c3)[C@H]3[C@H](NC(=O)Nc5cc(F)cc(F)c5)[C@H]3O4)ccnc2N1 [Compound 1.23] | 0.3 nM | 479 nM | 253 nM | 109 nM | 101 nM | 12 nM | 3.7 nM | 1.8 nM | 189 nM
2 | Cc1cc(NC(=O)N[C@@H]2[C@H]3Oc4ccc(Oc5ccnc6c5CCC(=O)N6)cc4[C@@H]23)ccc1F [Compound 1.24] | 0.37 nM | – | – | 25 nM | – | 7.7 nM | 2.7 nM | 1.5 nM | –
3 | O=C1CCc2c(Oc3ccc4c(c3)[C@H]3[C@H](NC(=O)Nc5ccc(Cl)c(C(F)(F)F)c5)[C@H]3O4)ccnc2N1 [Compound 1.25] | 2.3 nM | – | – | 25 nM | – | – | 33 nM | 27 nM | –
4 | O=C1CCc2c(Oc3ccc4c(c3)[C@H]3[C@H](NC(=O)Nc5ccc(Cl)c(Cl)c5)[C@H]3O4)ccnc2N1 [Compound 1.28] | 0.77 nM | – | – | 40 nM | – | 49 nM | 16 nM | 5.5 nM | –
5 | O=C1CCc2c(Oc3ccc4c(c3)[C@H]3[C@H](NC(=O)Nc5ccc(F)c(C(F)(F)F)c5)[C@H]3O4)ccnc2N1 [Compound 1.32] | 1.2 nM | 527 nM | 433 nM | 55 nM | 301 nM | 58 nM | 17 nM | 7.7 nM | 536 nM
6 | O=C1CCc2c(Oc3ccc4c(c3)[C@H]3[C@H](NC(=O)Nc5ccc(F)cc5F)[C@H]3O4)ccnc2N1 [Compound 1.35] | 0.25 nM | 1130 nM | 314 nM | 143 nM | 75 nM | 4.1 nM | 1 nM | 0.59 nM | 610 nM
7 | O=C1CCc2c(Oc3ccc4c(c3)[C@H]3[C@H](NC(=O)Nc5ccc(F)cc5)[C@H]3O4)ccnc2N1 [Compound 1.41] | 0.15 nM | – | – | 65 nM | – | – | 0.57 nM | 0.8 nM | –
8 | O=C1CCc2c(Oc3ccc4c(c3)[C@H]3[C@H](NC(=O)Nc5cccc(F)c5F)[C@H]3O4)ccnc2N1 [Compound 1.42] | 0.24 nM | – | – | 178 nM | – | – | 1.5 nM | 0.94 nM | –
9 | O=C1CCc2c(Oc3ccc4c(c3)[C@H]3[C@H](NC(=O)Nc5cc(F)ccc5F)[C@H]3O4)ccnc2N1 [Compound 1.43] | 0.26 nM | – | – | 96 nM | – | 5.9 nM | 2.1 nM | 1.2 nM | –
10 | O=C1CCc2c(Oc3ccc4c(c3)[C@H]3[C@H](NC(=O)Nc5c(F)cccc5F)[C@H]3O4)ccnc2N1 [Compound 1.44] | 0.21 nM | – | – | 702 nM | – | – | 1.9 nM | 1.3 nM | –
11 | O=C1CCc2c(Oc3ccc4c(c3)[C@H]3[C@H](NC(=O)Nc5ccc(F)c(F)c5)[C@H]3O4)ccnc2N1 [Compound 1.45] | 0.3 nM | 645 nM | 325 nM | 32 nM | 84 nM | 6.7 nM | 2.7 nM | 1.1 nM | 265 nM
12 | O=C1CCc2c(Oc3ccc4c(c3)[C@H]3[C@H](NC(=O)Nc5ccc(F)c(F)c5F)[C@H]3O4)ccnc2N1 [Compound 1.46] | 0.22 nM | – | – | 109 nM | – | 6 nM | 1.7 nM | 0.78 nM | –
13 | O=C1CCc2c(Oc3ccc4c(c3)[C@H]3[C@H](NC(=O)Nc5cc(F)c(F)c(F)c5)[C@H]3O4)ccnc2N1 [Compound 1.47] | 0.53 nM | – | – | 140 nM | – | 23 nM | 6.4 nM | 4.1 nM | –
14 | O=C1CCc2c(Oc3ccc4c(c3)[C@H]3[C@H](NC(=O)Nc5cc(F)c(F)cc5F)[C@H]3O4)ccnc2N1 [Compound 1.49] | 0.19 nM | 639 nM | 153 nM | 17 nM | 112 nM | 7.9 nM | 2.5 nM | 1.2 nM | 498 nM
15 | O=C1CCc2c(Oc3ccc4c(c3)[C@H]3[C@H](NC(=O)NC5CCCCCC5)[C@H]3O4)ccnc2N1 [Compound 1.52] | 0.25 nM | – | 173 nM | 47.7 nM | 411 nM | – | 1.7 nM | 1.4 nM | 5430 nM
16 | O=C1CCc2c(Oc3ccc4c(c3)[C@H]3[C@H](NC(=O)Nc5cc(F)cc(F)c5F)[C@H]3O4)ccnc2N1 [Compound 1.53] | – | 1320 nM | – | 77 nM | – | – | – | 2.9 nM | –
17 | O=C1CCc2c(Oc3ccc4c(c3)[C@H]3[C@H](NC(=O)NC5CCCCC5)[C@H]3O4)ccnc2N1 [Compound 1.66] | 0.25 nM | – | – | 101 nM | – | – | 2.3 nM | 2.3 nM | –
18 | CCN1CCN(Cc2ccc(NC(=O)N[C@@H]3[C@H]4Oc5ccc(Oc6ccnc7c6CCC(=O)N7)cc5[C@@H]34)cc2C(F)(F)F)CC1 [Compound 1.73, 1-(4-((4-ethylpiperazin-1-yl)methyl)-3-(trifluoromethyl)phenyl)-3-((1S,1aS,6bS)-5-((7-oxo-5,6,7,8-tetrahydro-1,8-naphthyridin-4-yl)oxy)-1a,6b-dihydro-1H-cyclopropa[b]benzofuran-1-yl)urea] | 0.84 nM | – | – | 1330 nM | – | – | 13 nM | 13 nM | –
19 | COc1cc(NC(=O)N[C@@H]2[C@H]3Oc4ccc(Oc5ccnc6c5CCC(=O)N6)cc4[C@@H]23)ccn1 [Compound 1.75, 1-(2-methoxypyridin-4-yl)-3-((1S,1aS,6bS)-5-((7-oxo-5,6,7,8-tetrahydro-1,8-naphthyridin-4-yl)oxy)-1a,6b-dihydro-1H-cyclopropa[b]benzofuran-1-yl)urea] | 0.27 nM | – | – | 405 nM | – | – | 2.4 nM | 2.2 nM | –
20 | CCCS(=O)(=O)Nc1ccc(F)c(C(=O)c2c[nH]c3ncc(-c4ccc(Cl)cc4)cc23)c1F [Vemurafenib, reference compound] | – | > 10000 nM | > 10000 nM | 178 nM | > 10000 nM | – | – | – | 5820 nM
